{
  "source": "patent US9375013B2",
  "about": "“Herbicidal composition” (ISHIHARA SANGYO KAISHA, LTD., priority 2013, dated 2016)",
  "format_in_all_cases": "in vivo",
  "key": {"[1]": {"tested_on": "persian speedwell (Veronica persica Poiret.)", "assay": "Test Example 10: pot soil treatment, growth inhibition of persian speedwell", "conditions": "dose 30 g/ha, 21st day after treatment, read-out: Growth inhibition rate (%) of persian speedwell, Measured value"}, "[2]": {"tested_on": "summergrass (Digitaria ciliaris (Retz.) Koeler)", "assay": "Test Example 1: pot soil treatment, growth inhibition of summergrass", "conditions": "dose 10 g/ha, 14th day after treatment, read-out: Growth inhibition rate (%) of summergrass, Measured value", "protocol": "Upland field soil was put into a 1/160,000 ha pot, and seeds of summergrass (Digitaria ciliaris (Retz.) Koeler) were sown. On the next day, predetermined amounts of flazasulfuron and imazapic were diluted with water (in an amount corresponding to 300 L/ha), and applied for soil treatment by a small sprayer. On the 14th day after treatment, the state of growth of the summergrass was visually observed to determine the growth inhibition rate in accordance with the following evaluation standard. The growth inhibition rate (%) (measured value) and the growth inhibition rate (%) (calculated value) calculated by the Colby's formula are shown in Table 1. Growth inhibition rate (%)=0 (equivalent to the non-treated area) to 100 (complete kill)"}, "[3]": {"tested_on": "shattercane (Sorghum bicolor (L.) Moench.)", "assay": "Test Example 6: pot soil treatment, growth inhibition of shattercane", "conditions": "dose 30 g/ha, 22nd day after treatment, read-out: Growth inhibition rate (%) of shattercane, Measured value", "excerpt": "On the 14th day after treatment, the state of growth of the summergrass was visually observed to determine the growth inhibition rate in accordance with the following evaluation standard. The growth inhibition rate (%) (measured value) and the growth inhibition rate (%) (calculated value) calculated by the Colby's formula are shown in Table 1. Growth inhibition rate (%)=0 (equivalent to the non-treated area) to 100 (complete kill)\nUpland field soil was put into a 1/160,000 ha pot, and seeds of shattercane (Sorghum bicolor (L.) Moench.) were sown. On the next day, predetermined amounts of flazasulfuron and hexazinone were diluted with water (in an amount corresponding to 300 L/ha), and applied for soil treatment by a small sprayer.\nOn the 22nd day after treatment, the state of growth of the shattercane was visually observed to determine the growth inhibition rate. The growth inhibition rate (%) (measured value) and the growth inhibition rate (%) calculated in the same manner as in Test Example 1 are shown in Table 6."}, "[4]": {"tested_on": "common lespedeza (Lespedeza striata (Thunb.) Hook. et Arn.)", "assay": "Test Example 12: pot soil treatment, growth inhibition of common lespedeza", "conditions": "Kummerowia striata, dose 30 g/ha, 21st day after treatment, read-out: Growth inhibition rate (%) of common lespedeza, Measured value", "excerpt": "(§1) On the 14th day after treatment, the state of growth of the summergrass was visually observed to determine the growth inhibition rate in accordance with the following evaluation standard. The growth inhibition rate (%) (measured value) and the growth inhibition rate (%) (calculated value) calculated by the Colby's formula are shown in Table 1. Growth inhibition rate (%)=0 (equivalent to the non-treated area) to 100 (complete kill) Upland field soil was put into a 1/160,000 ha pot, and seeds of common lespedeza (Lespedeza striata (Thunb.) Hook. et Arn.) were sown. On the next day, predetermined amounts of flazasulfuron and imazapic were diluted with water (in an amount corresponding to 300 L/ha), and applied for soil treatment by a small sprayer. On the 21st day after treatment, the state of growth of the common lespedeza was visually observed to determine the growth inhibition rate. The growth inhibition rate (%) (measured value) and the growth inhibition rate (%) calculated in the same manner as in Test Example 1 are shown in Table 12."}, "[5]": {"tested_on": "velvetleaf (Abutilon theophrasti MEDIC.)", "assay": "Test Example 13: pot soil treatment, growth inhibition of velvetleaf", "conditions": "dose 30 g/ha, 21st day after treatment, read-out: Growth inhibition rate (%) of velvetleaf, Measured value"}, "[6]": {"tested_on": "rostrate sesbania(Sesbania rostrata Bremek. & Oberm.)", "assay": "Test Example 7: pot soil treatment, growth inhibition of rostrate sesbania", "conditions": "22nd day after treatment, read-out: Growth inhibition rate (%) of rostrate sesbania, Measured value"}, "[7]": {"tested_on": "common ragweed (Ambrosia artemisiifolia L.)", "assay": "Test Example 11: pot soil treatment, growth inhibition of common ragweed", "conditions": "dose 10 g/ha, 21st day after treatment, read-out: Growth inhibition rate (%) of common ragweed, Measured value", "excerpt": "as §1, with “ragweed (Ambrosia artemisiifolia L.)” for “lespedeza (Lespedeza striata (Thunb.) Hook. et Arn.)”, “ragweed” for “lespedeza”, “11.” for “12.”"}, "[8]": {"tested_on": "wild oat (Avena fatua L.)", "assay": "Test Example 3: pot soil treatment, growth inhibition of wild oat", "conditions": "22nd day after treatment, read-out: Growth inhibition rate (%) of wild oat, Measured value", "excerpt": "as §1, with “wild oat (Avena fatua L.)” for “common lespedeza (Lespedeza striata (Thunb.) Hook. et Arn.)”, “flazasulfuron, mesotrione” for “flazasulfuron”, “22nd” for “21st”, “wild oat” for “common lespedeza”, “3.” for “12.”"}},
  "data": [
    {"smiles": "COc1cc(OC)nc(NC(=O)NS(=O)(=O)c2ncccc2C(F)(F)F)n1", "note": "[Flazasulfuron, flazasulfuron]", "values": [
      {"measurement": "inhibition at 30 g/ha", "setting": "[1]", "result": 15, "unit": "%"},
      {"measurement": "inhibition at 10 g/ha", "setting": "[2]", "result": 15, "unit": "%"},
      {"measurement": "inhibition at 30 g/ha", "setting": "[3]", "result": 60, "unit": "%"},
      {"measurement": "inhibition at 30 g/ha", "setting": "[4]", "result": 90, "unit": "%"},
      {"measurement": "inhibition at 30 g/ha", "setting": "[5]", "result": 75, "unit": "%"},
      {"measurement": "inhibition at 50 g/ha", "setting": "[6]", "result": 35, "unit": "%"},
      {"measurement": "inhibition at 10 g/ha", "setting": "[7]", "result": 80, "unit": "%"},
      {"measurement": "inhibition at 30 g/ha", "setting": "[8]; dose 30 g/ha", "result": 40, "unit": "%"},
      {"measurement": "inhibition at 50 g/ha", "setting": "[8]; dose 50 g/ha", "result": 0, "unit": "%"}
    ]}
  ]
}
